Measured values: the supplement of paper PMC4862054

What was measured:
Conditions in all cases: incubation time: 72 h
MDA-MB-436 = test: drug sensitivity score (DSS), CellTox Green (DSS (AUC-based score)); higher = stronger drug effect (viability inhibition or cytotoxicity); extreme values may be limits of the assay
How it was run: (§1)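 The drug sensitivity score was computed from the area under the fitted dose-response curve. Breast cancer cell lines in 20 µl suspension went into 384-well plates holding compound at 5 concentrations (10-fold steps over a 10,000-fold, compound-specific range) for 72 h of incubation. CellTox Green fluorescence (485/520 nm) was read before CellTiter-Glo luminescence, the latter after 10 min at room temperature, and each plate was normalised to 0.1 % DMSO and a positive kill control.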

BT-549 = test: as above
How it was run: as §1

MDA-MB-468 = test: as above
How it was run: as §1

MDA-MB-453 [1] = test: as above
How it was run: as §1

CAL-148 [2] = test: as above
How it was run: as §1

CAL-120 = test: as above
How it was run: as §1

HDQ-P1 [3] = test: as above
How it was run: as §1

HCC1937 = test: as above
How it was run: as §1

CAL-85-1 [4] = test: as above
How it was run: as §1

MCF-10A = test: as above
How it was run: as §1

CAL-51 [5] = test: as above
How it was run: as §1

Hs578T = test: as above
How it was run: as §1

MDA-MB-231 = test: as above
How it was run: as §1

DU-4475 [6] = test: as above
How it was run: as §1

MFM-223 = test: as above
How it was run: as §1

MDA-MB-453 [7] = test: normalised viability (% of control), CellTiter-Blue; higher = more viable cells (about 100 = DMSO control)
Experimental: (§2)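 DSRT, CellTiter-Blue viability, 72 h incubation. Signal is normalised to DMSO and benzethonium chloride controls. Value is the normalised response at dose 8.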

CAL-148 [8] = test: as above
Experimental: as §2

HDQ-P1 [9] = test: as above
Experimental: as §2

CAL-85-1 [10] = test: as above
Experimental: as §2

CAL-51 [11] = test: as above
Experimental: as §2

DU-4475 [12] = test: as above
Experimental: as §2

MDA-MB-453 [13] = test: as above; remark: listed apart in the source
Experimental: (§3)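 DSRT, CellTiter-Blue viability, 72 h incubation. Signal is normalised to DMSO and benzethonium chloride controls. Value is the normalised response at dose 9.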

CAL-148 [14] = test: as above; remark: listed apart in the source
Experimental: as §3

HDQ-P1 [15] = test: as above; remark: listed apart in the source
Experimental: as §3

CAL-85-1 [16] = test: as above; remark: listed apart in the source
Experimental: as §3

CAL-51 [17] = test: as above; remark: listed apart in the source
Experimental: as §3

DU-4475 [18] = test: as above; remark: listed apart in the source
Experimental: as §3

SMILES | drug sensitivity score (MDA-MB-436) | drug sensitivity score (BT-549) | drug sensitivity score (MDA-MB-468) | drug sensitivity score (MDA-MB-453 [1]) | drug sensitivity score (CAL-148 [2]) | drug sensitivity score (CAL-120) | drug sensitivity score (HDQ-P1 [3]) | drug sensitivity score (HCC1937) | drug sensitivity score (CAL-85-1 [4]) | drug sensitivity score (MCF-10A) | drug sensitivity score (CAL-51 [5]) | drug sensitivity score (Hs578T) | drug sensitivity score (MDA-MB-231) | drug sensitivity score (DU-4475 [6]) | drug sensitivity score (MFM-223) | normalised viability (MDA-MB-453 [7]; 297 nM) [%] | normalised viability (MDA-MB-453 [7]; 3000 nM) [%] | normalised viability (CAL-148 [8]; 297 nM) [%] | normalised viability (CAL-148 [8]; 3000 nM) [%] | normalised viability (HDQ-P1 [9]; 297 nM) [%] | normalised viability (HDQ-P1 [9]; 3000 nM) [%] | normalised viability (CAL-85-1 [10]; 297 nM) [%] | normalised viability (CAL-85-1 [10]; 3000 nM) [%] | normalised viability (CAL-51 [11]; 297 nM) [%] | normalised viability (CAL-51 [11]; 3000 nM) [%] | normalised viability (DU-4475 [12]; 297 nM) [%] | normalised viability (DU-4475 [12]; 3000 nM) [%] | normalised viability (MDA-MB-453 [13]; 990 nM) [%] | normalised viability (MDA-MB-453 [13]; 10000 nM) [%] | normalised viability (CAL-148 [14]; 990 nM) [%] | normalised viability (CAL-148 [14]; 10000 nM) [%] | normalised viability (HDQ-P1 [15]; 990 nM) [%] | normalised viability (HDQ-P1 [15]; 10000 nM) [%] | normalised viability (CAL-85-1 [16]; 990 nM) [%] | normalised viability (CAL-85-1 [16]; 10000 nM) [%] | normalised viability (CAL-51 [17]; 990 nM) [%] | normalised viability (CAL-51 [17]; 10000 nM) [%] | normalised viability (DU-4475 [18]; 990 nM) [%] | normalised viability (DU-4475 [18]; 10000 nM) [%]
CC[C@H](Nc1ncnc2[nH]cnc12)c1nc2cccc(F)c2c(=O)n1-c1ccccc1 [GS-1101] | 0 | 0 | 3.82 | 0 | 0 | 0 | 0 | 0 | 0 | 0 | 0 | 0 | 4.13 | 0 | 0 |  |  |  |  |  |  |  |  |  |  |  |  |  |  |  |  |  |  |  |  |  |  |  | 
C=CC(=O)N1CCC[C@@H](n2nc(-c3ccc(Oc4ccccc4)cc3)c3c(N)ncnc32)C1 [Ibrutinib] | 0 | 0 | 0 | 1.03 | 0 | 0 | 0.282 | 0 | 4.71 | 0 | 0.377 | 0 | 0 | 0 | 0 |  |  |  |  |  |  |  |  |  |  |  |  |  |  |  |  |  |  |  |  |  |  |  | 
CCN(CC)CCCC(C)Nc1c2ccc(Cl)cc2nc2ccc(OC)cc12 (centres undefined) [Mepacrine] | 0 | 0 | 0.235 | 0 | 0 | 0 | 0 | 0 | 0 | 0 | 0 |  | 5 | 0 | 0 | 89 | 43.1 | 73.2 | 56.4 | 56.8 | 42.9 | 87.8 | 59.5 | 93.3 | 77.8 | 84 | 69.1 | 15.7 | 2.2 | 35.4 | 12.4 | 23.8 | 6.19 | 44.1 | 15.1 | 34.9 | 12.3 | 30.9 | 4.09
C=CCc1cccc(/C=N/NC(=O)CN2CCN(Cc3ccccc3)CC2)c1O [PAC-1] | 0 | 8.49 | 0 | 0 | 0 | 0 | 0 | 0 | 0 | 0 | 4.72 | 0 | 0 | 0 | 0 |  |  |  |  |  |  |  |  |  |  |  |  |  |  |  |  |  |  |  |  |  |  |  | 
CC[C@H](C)C(=O)O[C@H]1C[C@H](O)C=C2C=C[C@H](C)[C@H](CC[C@@H](O)C[C@@H](O)CC(=O)O)[C@H]21 [Pravastatin] | 32.8 | 0.618 | 2.44 | 0 | 0 | 0 | 0 | 0 | 0 | 2.17 | 5.33 | 0 | 4.52 | 0 | 0 |  |  |  |  |  |  |  |  |  |  |  |  |  |  |  |  |  |  |  |  |  |  |  | 
Cc1cnc(NC(=O)Nc2cc(Br)c(C)cc2OC[C@@H]2CNCCO2)cn1 [Rabusertib] | 0 | 0 | 0 | 0 | 0.673 | 0 | 0 | 0 | 0 | 0 | 0 | 0 | 0 | 0 | 0 |  |  |  |  |  |  |  |  |  |  |  |  |  |  |  |  |  |  |  |  |  |  |  | 
CNC(=O)c1cc(Oc2ccc(NC(=O)Nc3cc(C(C)(C)C)nn3-c3ccc4ncccc4c3)c(F)c2)ccn1 [Rebastinib] | 0 | 0 | 0 | 0 | 0 | 0 | 4.01 | 0 | 2.09 | 0 | 0 | 0 | 0 | 0 | 0 |  |  |  |  |  |  |  |  |  |  |  |  |  |  |  |  |  |  |  |  |  |  |  | 
C1CN1c1nc(N2CC2)nc(N2CC2)n1 [Triethylenemelamine] |  |  |  |  |  |  |  |  |  |  |  |  |  |  |  |  | 113 |  | 85.6 |  | 107 |  | 104 |  | 109 |  | 98.7 |  | 40.9 |  | 80 |  | 101 |  | 72.8 |  | 60.5 |  | 95.9
COc1cc2c(NC3CCN(C(C)C)CC3)nc(C3CCCCC3)nc2cc1OCCCN1CCCC1 [UNC0638] | 4.24 | 8.31 | 7.09 | 6.8 | 6.35 | 6.94 | 1.42 | 7.61 | 6.93 | 7.41 | 9.03 |  | 9.02 | 0 | 3.4 |  |  |  |  |  |  |  |  |  |  |  |  |  |  |  |  |  |  |  |  |  |  |  | 
